# Test results as given in publication PMC10584170, “Machine learning-based phenotypic imaging to characterise the targetable biology of Plasmodium falciparum male gametocytes for the development of transmission-blocking antimalarials” (PLOS Pathogens, 2023).
# Key:
# [1] = test system: P. falciparum female gametocytes; assay: P. falciparum Dual Gamete Formation Assay (PfDGFA), female readout (Pfs25-positive female gametes); format: cell-based, Plasmodium falciparum NF54; conditions: for Average inhibition female (%): average of replicates; for % inhibition female (individual replicates) R1: replicate R1; for % inhibition female (individual replicates) R3: replicate R3; for % inhibition female (individual replicates) R4: replicate R4
# Procedure, shortened: (§1)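 Read-outs are automated image counts of exflagellation centres (brightfield, 10 frames over 1 s) and Pfs25-positive female gametes (Cy3 fluorescence).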
# [2] = test system: P. falciparum male gametocytes; assay: P. falciparum Dual Gamete Formation Assay (PfDGFA), male readout (exflagellation); format: cell-based, Plasmodium falciparum NF54; conditions: for Average inhibition male (%): average of replicates; for % inhibition male (individual replicates) R1: replicate R1; for % inhibition male (individual replicates) R3: replicate R3; for % inhibition male (individual replicates) R4: replicate R4; for Activity: hit = >50% inhibition in male or female readout in at least 3 replicates, 0 = no class assigned
# Procedure, shortened: as §1
# [3] = PfDGFA at 2µM, 24h preincubation with gametocytes
# [4] = 2µM, 24h preincubation with gametocytes prior to induction of gametogenesis
# [5] = 2µM, 24h preincubation, hits selected on >50% inhibition in the female readout across replicates
# [6] = 2µM, 24h preincubation, hits selected on >50% inhibition in the male readout across replicates
# [7] = PfDGFA at 2µM, 24h preincubation
# [8] = 2µM, 24h preincubation, number of replicates with >50% inhibition in the female readout
# [9] = 2µM, 24h preincubation, number of replicates with >50% inhibition in the male readout
# [10] = PfDGFA at 2µM, 24h preincubation with gametocytes prior to induction of gametogenesis
structure (smiles),measurement,setting,value
CN1CCCC1CCNCc1cccc(-c2cnc(N(C)C3CCCCC3)nc2)c1 (centres unmarked) [TCMDC-133141],Average inhibition female (%),[1]; [3],34.0%
same,% inhibition female (individual replicates) R1,[1]; [3],30.5%
same,% inhibition female (individual replicates) R3,[1]; [3],11.1%
same,% inhibition female (individual replicates) R4,[1]; [3],42.8%
same,HitlevelF,"[1]; number of replicates with >50% inhibition in the female readout, 2µM",1
same,Average inhibition male (%),[2]; [3],74.0%
same,% inhibition male (individual replicates) R1,[2]; [3],71.5%
same,% inhibition male (individual replicates) R3,[2]; [3],68.9%
same,% inhibition male (individual replicates) R4,[2]; [3],81.6%
same,HitlevelM,"[2]; number of replicates with >50% inhibition in the male readout, 2µM",4
CCCN(CC1CC1)c1ncc(-c2cccc(CNCCC3CCCN3C)c2)cn1 (centres unmarked) [TCMDC-133142],Average inhibition female (%),[1]; [4],16.5%
same,% inhibition female (individual replicates) R1,[1]; [4],26.9%
same,% inhibition female (individual replicates) R3,[1]; [4],12.7%
same,% inhibition female (individual replicates) R4,[1]; [4],-0.1%
same,HitlevelF,[1]; [5],0
same,Average inhibition male (%),[2]; [4],41.7%
same,% inhibition male (individual replicates) R1,[2]; [4],43.1%
same,% inhibition male (individual replicates) R3,[2]; [4],28.4%
same,% inhibition male (individual replicates) R4,[2]; [4],53.6%
same,HitlevelM,[2]; [6],1
same,Activity,[2]; [7],0
CN(CCc1ccccc1)c1ncc(-c2cccc(CNCCC3CCCN3C)c2)cn1 (centres unmarked) [TCMDC-133143],Average inhibition female (%),[1]; [4],35.0%
same,% inhibition female (individual replicates) R1,[1]; [4],22.5%
same,% inhibition female (individual replicates) R3,[1]; [4],13.4%
same,% inhibition female (individual replicates) R4,[1]; [4],55.4%
same,HitlevelF,[1]; [8],1
same,Average inhibition male (%),[2]; [4],57.0%
same,% inhibition male (individual replicates) R1,[2]; [4],66.7%
same,% inhibition male (individual replicates) R3,[2]; [4],31.4%
same,% inhibition male (individual replicates) R4,[2]; [4],52.9%
same,HitlevelM,[2]; [9],3
CN1CCCC1CCNCc1cccc(-c2cnc(N3CCCC(C)(C)C3)nc2)c1 (centres unmarked) [TCMDC-133144],Average inhibition female (%),[1]; [4],21.7%
same,% inhibition female (individual replicates) R1,[1]; [4],23.0%
same,% inhibition female (individual replicates) R3,[1]; [4],21.4%
same,% inhibition female (individual replicates) R4,[1]; [4],13.1%
same,HitlevelF,[1]; [8],0
same,Average inhibition male (%),[2]; [4],57.1%
same,% inhibition male (individual replicates) R1,[2]; [4],64.8%
same,% inhibition male (individual replicates) R3,[2]; [4],37.3%
same,% inhibition male (individual replicates) R4,[2]; [4],70.2%
same,HitlevelM,[2]; [9],3
O=C(Nc1ccsc1)Nc1cccc(-c2ccc(-c3nc4cc(C(F)(F)F)ccc4[nH]3)cc2)c1 [TCMDC-133210],% inhibition female (individual replicates) R1,[1]; [10],5.3%
same,% inhibition female (individual replicates) R3,[1]; [10],-25.6%
same,% inhibition female (individual replicates) R4,[1]; [10],-2.5%
same,Average inhibition female (%),[1]; [7],-7.9%
same,% inhibition male (individual replicates) R1,[2]; [10],-6.9%
same,% inhibition male (individual replicates) R3,[2]; [10],-21.6%
same,% inhibition male (individual replicates) R4,[2]; [10],0.9%
same,Average inhibition male (%),[2]; [7],-14.6%
CCCCCN1CCCC1CNS(=O)(=O)c1cccc(C(=O)Nc2cccc(C#N)c2)c1.O=C(O)C(F)(F)F (centres unmarked) [TCMDC-133690],% inhibition female (individual replicates) R1,[1]; [10],2.9%
same,% inhibition female (individual replicates) R3,[1]; [10],-5.0%
same,% inhibition female (individual replicates) R4,[1]; [10],6.8%
same,Average inhibition female (%),[1]; [7],-0.08%
same,% inhibition male (individual replicates) R1,[2]; [10],-0.3%
same,% inhibition male (individual replicates) R4,[2]; [10],15.0%
same,Average inhibition male (%),[2]; [7],7.9%
Cl.NCc1ccc(-c2ccc3c(N)nccc3c2)cc1 [TCMDC-133718],Average inhibition female (%),[1]; [4],21.1%
same,% inhibition female (individual replicates) R1,[1]; [4],11.2%
same,% inhibition female (individual replicates) R3,[1]; [4],8.8%
same,% inhibition female (individual replicates) R4,[1]; [4],10.1%
same,HitlevelF,[1]; [8],1
same,Average inhibition male (%),[2]; [4],18.4%
same,% inhibition male (individual replicates) R1,[2]; [4],-0.6%
same,% inhibition male (individual replicates) R3,[2]; [4],-25.8%
same,% inhibition male (individual replicates) R4,[2]; [4],49.6%
same,HitlevelM,[2]; [9],1
Cc1cccc(-c2cccc(CNc3nc(NCCc4ccc(O)cc4)nc(N4CCNCC4)n3)c2)c1.O=C(O)C(F)(F)F [TCMDC-133810],Average inhibition female (%),[1]; [4],7.6%
same,% inhibition female (individual replicates) R1,[1]; [4],16.4%
same,% inhibition female (individual replicates) R3,[1]; [4],-13.0%
same,% inhibition female (individual replicates) R4,[1]; [4],18.6%
same,HitlevelF,[1]; [5],0
same,Average inhibition male (%),[2]; [4],-4.6%
same,% inhibition male (individual replicates) R1,[2]; [4],-4.0%
same,% inhibition male (individual replicates) R3,[2]; [4],-16.3%
same,% inhibition male (individual replicates) R4,[2]; [4],16.2%
same,HitlevelM,[2]; [6],0
same,Activity,[2]; [7],0
CN1CCC(N2CCN(Cc3cccc(-c4ccc(-c5nc6cc(F)ccc6[nH]5)cc4)c3)CC2)CC1.O=C(O)C(F)(F)F [TCMDC-133858],Average inhibition female (%),[1]; [4],6.0%
same,% inhibition female (individual replicates) R1,[1]; [4],1.0%
same,% inhibition female (individual replicates) R3,[1]; [4],-3.8%
same,% inhibition female (individual replicates) R4,[1]; [4],20.5%
same,HitlevelF,[1]; [5],0
same,Average inhibition male (%),[2]; [4],26.9%
same,% inhibition male (individual replicates) R1,[2]; [4],35.0%
same,% inhibition male (individual replicates) R3,[2]; [4],-5.5%
same,% inhibition male (individual replicates) R4,[2]; [4],46.2%
same,HitlevelM,[2]; [6],0
same,Activity,[2]; [7],0
Cc1cccc2nc(-c3ccc(-c4ccc(CN5CCC(N)C5)cc4)s3)[nH]c12.O=C(O)C(F)(F)F (centres unmarked) [TCMDC-133862],Average inhibition female (%),[1]; [4],4.0%
same,% inhibition female (individual replicates) R1,[1]; [4],5.8%
same,% inhibition female (individual replicates) R3,[1]; [4],5.7%
same,% inhibition female (individual replicates) R4,[1]; [4],2.9%
same,HitlevelF,[1]; [5],0
same,Average inhibition male (%),[2]; [4],-1.0%
same,% inhibition male (individual replicates) R1,[2]; [4],-13.8%
same,% inhibition male (individual replicates) R4,[2]; [4],7.3%
same,HitlevelM,[2]; [6],0
same,Activity,[2]; [7],0
Cc1cccc2nc(-c3ccc(-c4ccc(CN5CCN(C6CCN(C)CC6)CC5)cc4)s3)[nH]c12.O=C(O)C(F)(F)F [TCMDC-133866],Average inhibition female (%),[1]; [4],32.5%
same,% inhibition female (individual replicates) R1,[1]; [4],26.9%
same,% inhibition female (individual replicates) R3,[1]; [4],41.8%
same,% inhibition female (individual replicates) R4,[1]; [4],27.5%
same,HitlevelF,[1]; [8],0
same,Average inhibition male (%),[2]; [4],12.4%
same,% inhibition male (individual replicates) R1,[2]; [4],12.8%
same,% inhibition male (individual replicates) R3,[2]; [4],24.6%
same,% inhibition male (individual replicates) R4,[2]; [4],21.2%
same,HitlevelM,[2]; [9],0
NC1CCN(Cc2ccc(-c3ccc(-c4nc5ccccc5[nH]4)cc3)cc2)C1.O=C(O)C(F)(F)F (centres unmarked) [TCMDC-133868],Average inhibition female (%),[1]; [4],15.3%
same,% inhibition female (individual replicates) R1,[1]; [4],0.6%
same,% inhibition female (individual replicates) R3,[1]; [4],-10.8%
same,% inhibition female (individual replicates) R4,[1]; [4],34.5%
same,HitlevelF,[1]; [8],0
same,Average inhibition male (%),[2]; [4],53.2%
same,% inhibition male (individual replicates) R1,[2]; [4],65.7%
same,% inhibition male (individual replicates) R3,[2]; [4],18.3%
same,% inhibition male (individual replicates) R4,[2]; [4],71.6%
same,HitlevelM,[2]; [9],3
NC1CCN(Cc2ccc(-c3ccc(-c4nc5cc(F)ccc5[nH]4)cc3)cc2)C1.O=C(O)C(F)(F)F (centres unmarked) [TCMDC-133872],Average inhibition female (%),[1]; [4],9.7%
same,% inhibition female (individual replicates) R1,[1]; [4],21.7%
same,% inhibition female (individual replicates) R3,[1]; [4],5.5%
same,% inhibition female (individual replicates) R4,[1]; [4],3.9%
same,HitlevelF,[1]; [5],0
same,Average inhibition male (%),[2]; [4],30.9%
same,% inhibition male (individual replicates) R1,[2]; [4],32.1%
same,% inhibition male (individual replicates) R3,[2]; [4],18.9%
same,% inhibition male (individual replicates) R4,[2]; [4],53.6%
same,HitlevelM,[2]; [6],1
same,Activity,[2]; [7],0
O=C(O)C(F)(F)F.c1cc(-c2ccc(CN3CCCCC3)cc2)cc(-c2nc3ccccc3[nH]2)c1 [TCMDC-133917],Average inhibition female (%),[1]; [4],7.0%
same,% inhibition female (individual replicates) R1,[1]; [4],8.8%
same,% inhibition female (individual replicates) R3,[1]; [4],-3.2%
same,% inhibition female (individual replicates) R4,[1]; [4],28.3%
same,HitlevelF,[1]; [5],0
same,Average inhibition male (%),[2]; [4],9.6%
same,% inhibition male (individual replicates) R1,[2]; [4],7.6%
same,% inhibition male (individual replicates) R3,[2]; [4],11.1%
same,% inhibition male (individual replicates) R4,[2]; [4],9.5%
same,HitlevelM,[2]; [6],0
same,Activity,[2]; [7],0
